Literature values as cited in US20090291974A1, “BOSENTAN SALTS” (priority 2008, published 2009).

Legend:
[1] = acidic and basic centers, overall value
[2] = not given; remark: listed apart in the source

Question: Which “solubility in aqueous solution at pH 1.1” value (aqueous solution, pH 1.1) does the source give for `COc1ccccc1Oc1c(NS(=O)(=O)c2ccc(C(C)(C)C)cc2)nc(-c2ncccn2)nc1OCCO` [Bosentan] here?
Answer: 0.1 mg/100 ml

Question: What about the “solubility in aqueous solution at pH 4.0” value (aqueous solution, pH 4.0) of the same compound?
Answer: 0.1 mg/100 ml

Question: What about the “solubility in aqueous solution at pH 5.0” value (aqueous solution, pH 5.0) of the same compound?
Answer: 0.2 mg/100 ml

Question: And the “solubility in aqueous solution at pH 7.5” value (aqueous solution, pH 7.5)?
Answer: 43 mg/100 ml

Question: What about the solubility in water (water) of the same compound?
Answer: 1.0 mg/100 ml

Question: And the “overall pKa” value [1]?
Answer: 5.46

Question: What does the source list for `COc1ccccc1Oc1c(NS(=O)(=O)c2ccc(C(C)(C)C)cc2)nc(-c2ncccn2)nc1OCCO` [Bosentan monohydrate, bosentan monohydrate]?
Answer: solubility in acetone ([2]; acetone): freely soluble; solubility in dichloromethane ([2]; dichloromethane): freely soluble; solubility in ethanol ([2]; ethanol): soluble; solubility in ethyl acetate ([2]; ethyl acetate): soluble; solubility in hexane ([2]; hexane): very slightly soluble; solubility in isopropanol ([2]; isopropanol): slightly soluble; solubility in methanol ([2]; methanol): slightly soluble
